In one data set the target is PI3Kα (Homo sapiens, UniProt P42336). The data set can be described thus: PI3K-alpha fluorescence polarization assay. Format: biochemical. The note with it: read-out: PI3Kα Median IC50. (In general: Polarisation of emitted light reports the rotation of a fluorescent probe.)
The target of a further data set is PI3Kγ (Homo sapiens, UniProt P48736). Description: PI3K-gamma fluorescence polarization assay. Format: biochemical. The note with it: read-out: PI3Kγ Median IC50.
Another data set deals with mTOR (Homo sapiens, UniProt P42345). The data set can be described thus: mTOR enzyme assay (DELFIA format, His6-S6K substrate). Format: biochemical. The note with it: read-out: mTOR Kinase Median IC50.

Bounds are passed on as bounds.

Consider 22 molecules from patent US20090298820A1, “3-SUBSTITUTED-1H-PYRROLO[2,3-B]PYRIDINE AND 3-SUBSTITUTED-1H-PYRROLO[3,2-B]PYRIDINE COMPOUNDS, THEIR USE AS MTOR KINASE AND PI3 KINASE INHIBITORS, AND THEIR SYNTHESES” (Wyeth, priority 2008, published 2009).

Chain of PI3Kγ (P48736 whole entry, species assumed): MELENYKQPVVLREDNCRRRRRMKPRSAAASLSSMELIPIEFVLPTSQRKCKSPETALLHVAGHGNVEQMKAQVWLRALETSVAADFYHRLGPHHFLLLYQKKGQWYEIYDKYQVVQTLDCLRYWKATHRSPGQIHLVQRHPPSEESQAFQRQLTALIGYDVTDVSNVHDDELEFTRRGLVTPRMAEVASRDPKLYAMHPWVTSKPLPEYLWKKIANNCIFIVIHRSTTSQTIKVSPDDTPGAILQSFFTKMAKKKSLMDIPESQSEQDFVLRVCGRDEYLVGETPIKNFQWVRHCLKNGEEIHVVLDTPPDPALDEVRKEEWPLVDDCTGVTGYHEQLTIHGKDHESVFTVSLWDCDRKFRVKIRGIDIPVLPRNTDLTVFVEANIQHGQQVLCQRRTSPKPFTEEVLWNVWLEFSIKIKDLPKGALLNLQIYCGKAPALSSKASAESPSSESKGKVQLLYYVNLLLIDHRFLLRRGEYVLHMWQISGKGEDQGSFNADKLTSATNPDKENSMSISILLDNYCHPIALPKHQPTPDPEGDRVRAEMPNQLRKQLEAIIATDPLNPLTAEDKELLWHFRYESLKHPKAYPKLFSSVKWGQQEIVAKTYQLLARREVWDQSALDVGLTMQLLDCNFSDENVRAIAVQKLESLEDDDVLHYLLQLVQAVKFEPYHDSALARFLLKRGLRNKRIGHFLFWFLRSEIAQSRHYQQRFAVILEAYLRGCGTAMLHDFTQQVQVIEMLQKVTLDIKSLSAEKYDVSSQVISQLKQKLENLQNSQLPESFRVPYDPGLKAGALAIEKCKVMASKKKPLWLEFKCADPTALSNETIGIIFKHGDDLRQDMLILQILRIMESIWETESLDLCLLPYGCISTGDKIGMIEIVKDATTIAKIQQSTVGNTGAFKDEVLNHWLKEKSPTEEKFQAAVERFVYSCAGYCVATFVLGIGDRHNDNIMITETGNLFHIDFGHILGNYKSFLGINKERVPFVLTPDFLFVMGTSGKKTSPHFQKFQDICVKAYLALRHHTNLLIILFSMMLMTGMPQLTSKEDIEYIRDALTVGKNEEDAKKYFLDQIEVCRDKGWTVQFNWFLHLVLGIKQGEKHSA
Chain of PI3Kα (P42336 whole entry, species assumed): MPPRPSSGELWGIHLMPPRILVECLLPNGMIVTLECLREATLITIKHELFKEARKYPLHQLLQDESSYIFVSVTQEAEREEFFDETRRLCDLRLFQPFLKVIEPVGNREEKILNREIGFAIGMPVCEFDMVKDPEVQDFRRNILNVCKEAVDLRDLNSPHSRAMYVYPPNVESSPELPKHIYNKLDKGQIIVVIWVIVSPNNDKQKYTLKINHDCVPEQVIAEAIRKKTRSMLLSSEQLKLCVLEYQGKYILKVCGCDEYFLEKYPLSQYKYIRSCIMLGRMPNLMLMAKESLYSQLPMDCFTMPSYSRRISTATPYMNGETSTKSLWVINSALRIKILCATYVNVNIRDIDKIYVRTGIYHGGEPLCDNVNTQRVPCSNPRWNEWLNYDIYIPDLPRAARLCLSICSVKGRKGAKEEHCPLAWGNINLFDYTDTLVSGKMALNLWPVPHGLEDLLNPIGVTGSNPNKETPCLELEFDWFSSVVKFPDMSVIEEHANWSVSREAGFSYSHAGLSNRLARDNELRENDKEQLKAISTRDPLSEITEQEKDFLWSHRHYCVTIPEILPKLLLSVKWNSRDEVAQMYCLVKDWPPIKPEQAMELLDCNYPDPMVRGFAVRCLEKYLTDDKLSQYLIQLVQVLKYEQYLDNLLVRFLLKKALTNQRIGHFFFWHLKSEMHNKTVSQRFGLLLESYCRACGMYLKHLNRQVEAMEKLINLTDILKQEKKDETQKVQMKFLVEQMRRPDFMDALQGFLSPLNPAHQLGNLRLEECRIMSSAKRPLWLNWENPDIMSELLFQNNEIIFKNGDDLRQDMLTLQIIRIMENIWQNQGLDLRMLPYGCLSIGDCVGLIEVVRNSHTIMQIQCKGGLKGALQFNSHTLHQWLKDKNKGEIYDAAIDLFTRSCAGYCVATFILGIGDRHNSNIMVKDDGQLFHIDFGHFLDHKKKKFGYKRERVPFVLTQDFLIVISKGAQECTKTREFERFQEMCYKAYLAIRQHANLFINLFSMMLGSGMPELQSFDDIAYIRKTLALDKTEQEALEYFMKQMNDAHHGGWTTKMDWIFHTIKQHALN
Chain of PI3Kα (P27986 whole entry partner, species assumed): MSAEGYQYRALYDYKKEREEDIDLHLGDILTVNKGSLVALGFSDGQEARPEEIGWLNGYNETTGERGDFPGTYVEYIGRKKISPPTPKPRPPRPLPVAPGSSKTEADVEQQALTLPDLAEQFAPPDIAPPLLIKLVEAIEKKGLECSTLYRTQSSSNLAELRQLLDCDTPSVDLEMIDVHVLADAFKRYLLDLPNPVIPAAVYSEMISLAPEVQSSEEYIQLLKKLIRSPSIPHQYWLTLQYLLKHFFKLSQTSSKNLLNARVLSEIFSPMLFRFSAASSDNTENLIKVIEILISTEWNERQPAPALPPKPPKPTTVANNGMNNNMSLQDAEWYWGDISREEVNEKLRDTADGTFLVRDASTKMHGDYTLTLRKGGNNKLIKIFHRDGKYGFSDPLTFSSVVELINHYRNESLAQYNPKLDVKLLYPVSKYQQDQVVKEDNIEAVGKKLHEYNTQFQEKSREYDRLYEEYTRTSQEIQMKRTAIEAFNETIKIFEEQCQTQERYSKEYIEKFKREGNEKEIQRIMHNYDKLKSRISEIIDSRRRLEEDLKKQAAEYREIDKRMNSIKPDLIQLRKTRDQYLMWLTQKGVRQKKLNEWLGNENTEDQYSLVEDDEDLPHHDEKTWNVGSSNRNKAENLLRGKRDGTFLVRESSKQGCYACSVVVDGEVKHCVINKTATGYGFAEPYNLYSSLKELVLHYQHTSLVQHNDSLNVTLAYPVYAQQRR

On to `Cn1cc(/C=C2\Oc3cc(O)ccc3C2=O)c2c(-c3ccccc3)ccnc21` [Compound 30, (2Z)-6-hydroxy-2-[(1-methyl-4-phenyl-1H-pyrrolo[2,3-b]pyridin-3-yl)methylene]-1-benzofuran-3(2H)-one], for which the melting point is 314 to 316 °C (dec.). The IC50 on PI3Kα is 219 nM. Moreover, the IC50 at PI3Kγ stood at 2380 nM. In addition, at mTOR, the IC50 worked out at 19 nM.

With `Cn1cc(/C=C2\Oc3cccc(O)c3C2=O)c2c(-c3ccccc3)ccnc21` [Compound 31, (2Z)-4-hydroxy-2-[(1-methyl-4-phenyl-1H-pyrrolo[2,3-b]pyridin-3-yl)methylene]-1-benzofuran-3(2H)-one], the melting point fell in the range of 274 to 275 °C. Further, at PI3Kα, the IC50 was found to be 89 nM. Also, at PI3Kγ, the IC50 stood at 187 nM. In addition, on mTOR, the IC50 came to 3.5 nM.

`Cn1cc(/C=C2\Oc3cc(O)cc(F)c3C2=O)c2c(-c3ccccc3)ccnc21` [Compound 32, (2Z)-4-fluoro-6-hydroxy-2-[(1-methyl-4-phenyl-1H-pyrrolo[2,3-b]pyridin-3-yl)methylene]-1-benzofuran-3(2H)-one]: the melting point is 325 to 327 °C (dec.). The IC50 at PI3Kα was 98 nM. For the same molecule, at PI3Kγ, the IC50 is 1050 nM. Further, at mTOR, the IC50 was found to be 46.5 nM.

For `Cn1cc(/C=C2\Oc3ccc(Br)cc3C2=O)c2c(-c3ccccc3)ccnc21` [Compound 37, (2Z)-5-bromo-2-[(1-methyl-4-phenyl-1H-pyrrolo[2,3-b]pyridin-3-yl)methylene]-1-benzofuran-3(2H)-one], the melting point fell in the range of 227 to 229 °C. Also, the IC50 at PI3Kα is 6860 nM. The IC50 at PI3Kγ was 4000 nM. The IC50 on mTOR was greater than 4000 nM.

As for `CNC(=O)Nc1ccc2c(c1)C(=O)/C(=C/c1cn(C)c3nccc(-c4ccccc4)c13)O2` [Compound 38, 1-methyl-3-{(2Z)-2-[(1-methyl-4-phenyl-1H-pyrrolo[2,3-b]pyridin-3-yl)methylene]-3-oxo-2,3-dihydro-1-benzofuran-5-yl}urea], the melting point is 265 to 270 °C (dec.). The IC50 at PI3Kα came to 234 nM. In addition, at PI3Kγ, the IC50 was determined as 1570 nM. In addition, at mTOR, the IC50 was determined as 37 nM.

On to `Cn1cc(/C=C2\Oc3cc(O)cc(O)c3C2=O)c2c(C#Cc3ccccc3)ccnc21` [Compound 39, (2Z)-4,6-dihydroxy-2-{[1-methyl-4-(phenylethynyl)-1H-pyrrolo[2,3-b]pyridin-3-yl]methylene}-1-benzofuran-3(2H)-one], for which the melting point was in the range of 308 to 310 °C. Moreover, the IC50 at PI3Kα turned out to be 106 nM. The IC50 at PI3Kγ turned out to be 104 nM. In addition, the IC50 on mTOR was 5.7 nM.

As to `Cn1cc(/C=C2\Oc3cc(O)cc(O)c3C2=O)c2c(N3CCCCC3)ccnc21` [Compound 40, (2Z)-4,6-dihydroxy-2-[(1-methyl-4-piperidin-1-yl-1H-pyrrolo[2,3-b]pyridin-3-yl)methylene]-1-benzofuran-3(2H)-one], the melting point lay in the range of 322 to 324 °C. Also, on PI3Kα, the IC50 stood at 68 nM. The IC50 at PI3Kγ stood at 282 nM. In addition, the IC50 at mTOR amounted to 0.6 nM.

Turning to `Cn1cc(/C=C2\Oc3ccc(O)cc3C2=O)c2c(-c3ccccc3)ccnc21` [Compound 42, (2Z)-5-hydroxy-2-[(1-methyl-4-phenyl-1H-pyrrolo[2,3-b]pyridin-3-yl)methylene]-1-benzofuran-3(2H)-one], the melting point is 352 to 354 °C (dec.). Also, the IC50 on PI3Kα is 129 nM. For the same molecule, on PI3Kγ, the IC50 is greater than 10000 nM. Moreover, the IC50 at mTOR came out at 22.5 nM.

For the molecule `Cn1cc(/C=C2\Oc3cc(O)cc(O)c3C2=O)c2c(N3CCCC3)ccnc21` [Compound 46, (2Z)-4,6-dihydroxy-2-[(1-methyl-4-pyrrolidin-1-yl-1H-pyrrolo[2,3-b]pyridin-3-yl)methylene]-1-benzofuran-3(2H)-one], the melting point fell in the range of 312 to 315 °C. Further, the IC50 on PI3Kα worked out at 59 nM. Further, the IC50 on PI3Kγ is 240 nM. Moreover, the IC50 at mTOR is 1.6 nM.

As for `Cn1cc(/C=C2\Oc3ccc(N)cc3C2=O)c2c(-c3ccccc3)ccnc21` [Compound 58, (2Z)-5-amino-2-[(1-methyl-4-phenyl-1H-pyrrolo[2,3-b]pyridin-3-yl)methylene]-1-benzofuran-3(2H)-one], the melting point lay within 232 to 239 °C. The IC50 on PI3Kα was found to be 199 nM. The IC50 at PI3Kγ was determined as 966 nM. Further, at mTOR, the 50% inhibitory concentration (IC50) stood at 16.5 nM.

On to `Cn1cc(/C=C2\Oc3ccc(NC(=O)OCCO)cc3C2=O)c2c(-c3ccccc3)ccnc21` [Compound 60, 2-hydroxyethyl {(2Z)-2-[(1-methyl-4-phenyl-1H-pyrrolo[2,3-b]pyridin-3-yl)methylene]-3-oxo-2,3-dihydro-1-benzofuran-5-yl}carbamate], for which the melting point was 233 to 235 °C. Further, the IC50 on PI3Kα was greater than 10000 nM. Also, the IC50 on PI3Kγ was greater than 10000 nM. The IC50 at mTOR is 58.5 nM.

In turn, `Cn1cc(/C=C2\Oc3cc(O)cc(O)c3C2=O)c2c(-c3cncnc3)ccnc21` [Compound 62, (2Z)-4,6-dihydroxy-2-[(1-methyl-4-pyrimidin-5-yl-1H-pyrrolo[2,3-b]pyridin-3-yl)methylene]-1-benzofuran-3(2H)-one] displayed a melting point of 340 °C. Besides, the IC50 at mTOR worked out at 4.3 nM.

Consider `Cn1cc(/C=C2\Oc3cc(O)cc(O)c3C2=O)c2c(-c3ccc(Cl)nc3)ccnc21` [Compound 63, (2Z)-2-{[4-(6-chloropyridin-3-yl)-1-methyl-1H-pyrrolo[2,3-b]pyridin-3-yl]methylene}-4,6-dihydroxy-1-benzofuran-3(2H)-one], for which the melting point was 340 °C. Besides, on PI3Kα, the IC50 amounted to 8 nM. Further, the IC50 on PI3Kγ is 24 nM. At mTOR, the IC50 came out at 1.5 nM.

`Cn1cc(/C=C2\Oc3cc(O)cc(O)c3C2=O)c2c(-c3ccc(Cl)cc3)ccnc21` [Compound 64, (2Z)-2-{[4-(4-chlorophenyl)-1-methyl-1H-pyrrolo[2,3-b]pyridin-3-yl]methylene}-4,6-dihydroxy-1-benzofuran-3(2H)-one] had a melting point of 345 °C. Also, the IC50 on PI3Kα came to 29 nM. Also, the IC50 on PI3Kγ is 81 nM. Besides, the IC50 at mTOR worked out at 1.8 nM.

As to `Cn1cc(/C=C2\Oc3cc(O)cc(O)c3C2=O)c2c(N3CCCCCC3)ccnc21` [Compound 65, (2Z)-2-[(4-azepan-1-yl-1-methyl-1H-pyrrolo[2,3-b]pyridin-3-yl)methylene]-4,6-dihydroxy-1-benzofuran-3(2H)-one], the melting point was in the range of 297 to 300 °C. In addition, the IC50 at PI3Kα stood at 41 nM. Moreover, the IC50 on PI3Kγ worked out at 60 nM. Moreover, the IC50 at mTOR worked out at 0.6 nM.

`COc1cccc(-c2ccnc3c2c(/C=C2\Oc4cc(O)cc(O)c4C2=O)cn3C)c1` [Compound 66, (2Z)-4,6-dihydroxy-2-{[4-(3-methoxyphenyl)-1-methyl-1H-pyrrolo[2,3-b]pyridin-3-yl]methylene}-1-benzofuran-3(2H)-one] showed a melting point of 297 to 300 °C. On PI3Kα, the IC50 was found to be 32 nM. The 50% inhibitory concentration (IC50) on PI3Kγ is 61 nM. Further, the IC50 on mTOR came out at 1.4 nM.

For the molecule `Cn1cc(/C=C2\Oc3cc(O)cc(O)c3C2=O)c2c(-c3ccc(CO)cc3)ccnc21` [Compound 67, (2Z)-4,6-dihydroxy-2-({4-[4-(hydroxymethyl)phenyl]-1-methyl-1H-pyrrolo[2,3-b]pyridin-3-yl}methylene)-1-benzofuran-3(2H)-one], the melting point is greater than 330 °C. Further, the IC50 on PI3Kα stood at 7 nM. In addition, the IC50 at PI3Kγ amounted to 21 nM. The IC50 on mTOR came to 0.2 nM.

In turn, `Cn1cc(/C=C2\Oc3cccc(NC(=O)C(C)(C)C)c3C2=O)c2c(-c3ccccc3)ccnc21` [Compound 68, 2,2-dimethyl-N-{(2Z)-2-[(1-methyl-4-phenyl-1H-pyrrolo[2,3-b]pyridin-3-yl)methylene]-3-oxo-2,3-dihydro-1-benzofuran-4-yl}propanamide] displayed a melting point of 251 to 253 °C. Moreover, the IC50 at PI3Kα is greater than 10000 nM. For the same molecule, on PI3Kγ, the IC50 worked out at 1800 nM. Besides, the IC50 at mTOR is greater than 4000 nM.

Consider `COc1ccc(-c2ccnc3c2c(/C=C2\Oc4cccc(O)c4C2=O)cn3C)cn1` [Compound 71, (2Z)-4-hydroxy-2-{[4-(6-methoxypyridin-3-yl)-1-methyl-1H-pyrrolo[2,3-b]pyridin-3-yl]methylene}-1-benzofuran-3(2H)-one], for which the melting point is 242 to 244 °C. The IC50 at PI3Kα turned out to be 62 nM. On PI3Kγ, the IC50 is 249 nM. In addition, at mTOR, the IC50 was determined as 16 nM.

For `Cn1cc(/C=C2\Oc3cc(O)cc(O)c3C2=O)c2c(-c3ccc(S(C)(=O)=O)cc3)ccnc21` [Compound 72, (2Z)-4,6-dihydroxy-2-({1-methyl-4-[4-(methylsulfonyl)phenyl]-1H-pyrrolo[2,3-b]pyridin-3-yl}methylene)-1-benzofuran-3(2H)-one], the melting point is 276 to 286 °C. In addition, the IC50 on PI3Kα is 5 nM. Also, the IC50 on PI3Kγ came out at 66 nM. Moreover, at mTOR, the IC50 was determined as 0.7 nM.

Turning to `Cn1cc(/C=C2\Oc3cc(O)cc(O)c3C2=O)c2c(-c3cccc(S(C)(=O)=O)c3)ccnc21` [Compound 74, (2Z)-4,6-dihydroxy-2-({1-methyl-4-[3-(methylsulfonyl)phenyl]-1H-pyrrolo[2,3-b]pyridin-3-yl}methylene)-1-benzofuran-3(2H)-one], the melting point lay within 315 to 320 °C. Besides, the IC50 on PI3Kα came to 14 nM. Moreover, on PI3Kγ, the IC50 was 132 nM. On mTOR, the IC50 amounted to 1.6 nM.

Turning to `CN1CC2CC1CN2c1ccnc2c1c(/C=C1\Oc3cccc(O)c3C1=O)cn2C` (stereo not shown) [Compound 153, (2Z)-4-hydroxy-2-{[1-methyl-4-(5-methyl-2,5-diazabicyclo[2.2.1]hept-2-yl)-1H-pyrrolo[2,3-b]pyridin-3-yl]methylidene}-1-benzofuran-3(2H)-one], the melting point is 220 °C (dec.). The IC50 at PI3Kγ was 148 nM. Besides, at mTOR, the IC50 is 16 nM.

In general, IC50 refers to the point on the concentration scale where inhibition reaches its midpoint. What is called melting point is the temperature of the solid-liquid transition.
